Measured values taken from EP3064205A1, “Therapeutic use of isomeric forms of 2-(4-chlorophenyl)quinolin-4-yl)(piperidin-2-yl)methanol” (Glionova AB, priority 2015, dated 2016).
Where two headings read alike, the source gives them in different places.

Legend:
Test in all cases: 3D clonogenic assay (PDX)
Format in all cases: cell-based, human
[1] = system: PAXF 2046; settings: PAXF 2046, Pancreas; for IC50: Homo sapiens
Method: (§1) The anti-tumor efficacy of S1 in the patient-derived tumor xenograft (PDX) tumor panel was assessed, where the efficacy of S1 in PDX tumor panel in the 96-well format, in 10 concentrations in duplicate was performed. Colony formation of tumor cell suspensions in a soft-agar matrix was observed and quantified. The output is IC50 values and dose response-relationships based on number of colonies in control and treatment wells, as identified by an automated image analysis algorithm. Stock solution of S1 was prepared in 100% DMSO at 10 mM concentration (stored at -20°C) and reused for each experiment. Compound final test concentrations: Dilution series ½ i.e.: 50µM, 15, 5, 1.5, 0.5, 0.15, 0.05, 0.015, 0.005 and 0.0015.
(§2) Tumor xenografts (also referred to as patient-derived tumor xenografts) were passaged as subcutaneous xenografts in NMRI nu/nu mice. Tumor xenograft were removed from mice under sterile conditions, mechanically disaggregated and subsequently incubated with an enzyme cocktail consisting of collagenase type IV (41 U/mL), DNase I (125 U/mL), hyaluronidase type III (100 U/mL) and dispase II (1.0 U/mL) in RPMI 1640 medium at 37°C for 60 - 120 minutes. Cells were passed through sieves of 100 µm and 40 µm mesh size and washed with RPMI 1640 medium. The percentage of viable cells was determined in a Neubauer-hemocytometer using trypan blue exclusion. Aliquots of the cells were frozen down, and stored in liquid nitrogen.
(§3) The clonogenic assay test was carried out in 96 well plate format. For each test a frozen aliquot of tumor cells prepared from tumor xenografts was thawed and assay plates were prepared as follows: each test well contained 3 layers of equal volume, 2 layers of semi-solid medium (bottom and top layer), and one layer of medium supernatant, with or without test compound. The bottom layer consisted of 0.05 mL/well Iscove's Modified Dulbecco's Medium (Invitrogen), supplemented with 20% (v/v) fetal calf serum (Sigma), 0.01% (w/v) gentamicin (Invitrogen) and 0.75% (w/v) agar (BD Biosciences). Tumor cells were added to 0.05 mL of the same culture medium supplemented with 0.4% (w/v) agar and plated onto the bottom layer. After 24 h, test compounds were added after serial dilution in DMSO and transfer in cell culture medium, and left on the cells for the duration of the experiment (continuous exposure, 0.05 mL drug overlay). Every dish included six untreated control wells and drug-treated groups in duplicate at 10 concentrations. Cultures were incubated at 37 °C and 7.5% CO2 in a humidified atmosphere for 8 to 13 days and monitored closely for colony growth using an inverted microscope. Within this period, ex vivo tumor growth lead to the formation of colonies with a diameter of >50 µm. At the time of maximum colony formation, counts were performed with an automatic image analysis system. 24 h prior to evaluation, vital colonies were stained with a sterile aqueous solution of 2-(4-iodophenyl)-3-(4-nitrophenyl)-5-phenyltetrazolium chloride (1 mg/mL, 100 µL/well). Sigmoidal concentration-response curves were fitted to the data points obtained for each tumor model using 4 parameter non-linear curve fit (Oncotest Warehouse Software). IC50 values are reported as relative IC50 values, being the concentration of test compound that give a response (inhibition of colony formation/viability) half way between the top and bottom plateau of the sigmoidal concentration-response curve (inflection point of the curve), or as absolute IC50 values, being the concentration of test compound at the intersection of the concentration-response curves with T/C = 50%. For calculation of mean IC50 values the geometric mean was used. Results are presented as mean graph plots or heat maps (individual IC50 values relative to the geometric mean IC50 value) over all cell lines as tested.

[2] = system: PAXF 2059; settings: PAXF 2059, Pancreas; for IC50: Homo sapiens
Method: as §1, §2, §3

[3] = system: MEXF 274; settings: MEXF 274, Melanoma; for IC50: Homo sapiens
Method: as §1, §2, §3

[4] = system: GXF 214; settings: GXF 214, Gastric; for IC50: Homo sapiens
Method: as §1, §2, §3

[5] = system: HNXF 908; settings: HNXF 908, Head and Neck; for IC50: Homo sapiens
Method: as §1, §2, §3

[6] = system: BXF 1258; settings: BXF 1258, Bladder; for IC50: Homo sapiens
Method: as §1, §2, §3

[7] = system: LXFL 1121; settings: LXFL 1121, Lung Large Cell; for IC50: Homo sapiens
Method: as §1, §2, §3

[8] = system: MEXF 622; settings: MEXF 622, Melanoma; for IC50: Homo sapiens
Method: as §1, §2, §3

[9] = system: RXF 1114; settings: RXF 1114, Renal; for IC50: Homo sapiens
Method: as §1, §2, §3

[10] = system: LXFA 1584; settings: LXFA 1584, Lung Adeno; for IC50: Homo sapiens
Method: as §1, §2, §3

[11] = system: LXFE 397; settings: LXFE 397, Lung Epidermoid; for IC50: Homo sapiens
Method: as §1, §2, §3

[12] = system: SXFS 1937; settings: SXFS 1937, Sarcoma Soft Tissue; for IC50: Homo sapiens
Method: as §1, §2, §3

O[C@H](c1cc(-c2ccc(Cl)cc2)nc2ccccc12)[C@@H]1CCCCN1 [S1, (R)-(2-(4-chlorophenyl)quinolin-4-yl)((S)-piperidin-2-yl)methanol]
IC50 ([1]; read-out: abs. IC50): 18.6 µM | IC50 ([1]; read-out: rel. IC50): 9.45 µM | b (bottom plateau of concentration-effect curve) [1]: 38 | t (top plateau of concentration-effect curve) [1]: 100 | IC50 ([2]; read-out: abs. IC50): 13.8 µM | IC50 ([2]; read-out: rel. IC50): 13 µM | b (bottom plateau of concentration-effect curve) [2]: 18 | t (top plateau of concentration-effect curve) [2]: 130 | IC50 ([3]; read-out: abs. IC50): 8.84 µM | IC50 ([3]; read-out: rel. IC50): 8.69 µM | b (bottom plateau of concentration-effect curve) [3]: 17 | t (top plateau of concentration-effect curve) [3]: 103 | b (bottom plateau of concentration-effect curve) [4]: 6 | t (top plateau of concentration-effect curve) [4]: 99 | IC50 ([4]; read-out: abs. IC50): 4.92 µM | IC50 ([4]; read-out: rel. IC50): 4.89 µM | b (bottom plateau of concentration-effect curve) [5]: 17 | t (top plateau of concentration-effect curve) [5]: 90 | IC50 ([5]; read-out: abs. IC50): 5.19 µM | IC50 ([5]; read-out: rel. IC50): 5.12 µM | b (bottom plateau of concentration-effect curve) [6]: 44 | t (top plateau of concentration-effect curve) [6]: 103 | IC50 ([6]; read-out: abs. IC50): 7.47 µM | IC50 ([6]; read-out: rel. IC50): 2.54 µM | IC50 ([7]; read-out: abs. IC50): 8.66 µM | IC50 ([7]; read-out: rel. IC50): 8.61 µM | b (bottom plateau of concentration-effect curve) [7]: 9 | t (top plateau of concentration-effect curve) [7]: 101 | IC50 ([8]; read-out: abs. IC50): 9.21 µM | IC50 ([8]; read-out: rel. IC50): 9.14 µM | b (bottom plateau of concentration-effect curve) [8]: 21 | t (top plateau of concentration-effect curve) [8]: 86 | IC50 ([9]; read-out: abs. IC50): 8.18 µM | IC50 ([9]; read-out: rel. IC50): 7.98 µM | b (bottom plateau of concentration-effect curve) [9]: 30 | t (top plateau of concentration-effect curve) [9]: 94 | IC50 ([10]; read-out: abs. IC50): 7.81 µM | IC50 ([10]; read-out: rel. IC50): 6.79 µM | b (bottom plateau of concentration-effect curve) [10]: 31 | t (top plateau of concentration-effect curve) [10]: 95 | IC50 ([11]; read-out: abs. IC50): 5.14 µM | IC50 ([11]; read-out: rel. IC50): 4.77 µM | b (bottom plateau of concentration-effect curve) [11]: 35 | t (top plateau of concentration-effect curve) [11]: 100 | IC50 ([12]; read-out: abs. IC50): 10.1 µM | IC50 ([12]; read-out: rel. IC50): 9.9 µM | b (bottom plateau of concentration-effect curve) [12]: 18 | t (top plateau of concentration-effect curve) [12]: 120
